According to ChEMBL document CHEMBL5096206, “From natural products to HDAC inhibitors: An overview of drug discovery and design strategy” (Bioorg Med Chem, 2021):
Converted amounts (≈) assume the structure as drawn.

Legend:
T47D [1] = assay: Antiproliferative activity against human T47D cells assessed as cell growth inhibition by burton method; type: functional, cell-based
BT-474 = assay: Antiproliferative activity against human BT-474 cells assessed as cell growth inhibition by SRB assay; type: functional, cell-based
MCF7 [2] = assay: cells; conditions: Homo sapiens
Description: Antiproliferative activity against human MCF7 cells assessed as cell growth inhibition by SRB assay

Histone deacetylase 1 [3] = molecular target: T1, Histone deacetylase 1 (Homo sapiens, UniProt Q13547); assay: Inhibition of human recombinant His-tagged HDAC1 expressed in baculovirus expression system incubated for 2 hrs by fluorescence based analysis
T1 sequence (Q13547 whole entry): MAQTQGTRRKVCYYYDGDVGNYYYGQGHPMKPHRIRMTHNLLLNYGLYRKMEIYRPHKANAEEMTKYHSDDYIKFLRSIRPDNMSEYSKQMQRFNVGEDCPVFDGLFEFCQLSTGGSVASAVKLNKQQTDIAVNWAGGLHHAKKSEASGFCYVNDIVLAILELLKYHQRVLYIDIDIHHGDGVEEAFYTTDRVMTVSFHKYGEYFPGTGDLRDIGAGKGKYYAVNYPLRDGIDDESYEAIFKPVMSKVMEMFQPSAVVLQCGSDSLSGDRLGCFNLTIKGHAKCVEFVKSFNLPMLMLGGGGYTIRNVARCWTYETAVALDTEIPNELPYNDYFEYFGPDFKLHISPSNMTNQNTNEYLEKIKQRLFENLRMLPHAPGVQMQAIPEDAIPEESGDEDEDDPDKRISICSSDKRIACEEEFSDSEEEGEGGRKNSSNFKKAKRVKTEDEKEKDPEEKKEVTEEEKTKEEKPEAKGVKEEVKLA

Histone deacetylase 2 [4] = molecular target: T2, Histone deacetylase 2 (Homo sapiens, UniProt Q92769); assay: Inhibition of human recombinant full-length His-tagged HDAC2 expressed in baculovirus expression system incubated for 2 hrs by fluorescence based analysis
T2 sequence (Q92769 whole entry): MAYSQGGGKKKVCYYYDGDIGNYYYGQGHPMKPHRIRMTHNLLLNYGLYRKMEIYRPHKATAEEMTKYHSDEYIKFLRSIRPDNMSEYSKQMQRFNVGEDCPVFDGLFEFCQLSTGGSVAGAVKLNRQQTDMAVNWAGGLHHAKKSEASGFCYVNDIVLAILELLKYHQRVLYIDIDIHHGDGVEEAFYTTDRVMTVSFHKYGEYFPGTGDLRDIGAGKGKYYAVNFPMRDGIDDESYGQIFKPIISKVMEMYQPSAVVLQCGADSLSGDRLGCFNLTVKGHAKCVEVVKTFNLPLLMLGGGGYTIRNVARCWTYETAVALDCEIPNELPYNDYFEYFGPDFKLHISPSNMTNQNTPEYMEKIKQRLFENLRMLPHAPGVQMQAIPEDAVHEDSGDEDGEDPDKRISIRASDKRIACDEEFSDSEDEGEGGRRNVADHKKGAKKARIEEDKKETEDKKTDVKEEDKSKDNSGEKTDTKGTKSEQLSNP

Histone deacetylase 3 = Histone deacetylase 3 (Homo sapiens, UniProt O15379); assay: Inhibition of human recombinant His-tagged HDAC3 expressed in baculovirus expression system incubated for 2 hrs by fluorescence based analysis
Sequence of Histone deacetylase 3 (O15379 whole entry): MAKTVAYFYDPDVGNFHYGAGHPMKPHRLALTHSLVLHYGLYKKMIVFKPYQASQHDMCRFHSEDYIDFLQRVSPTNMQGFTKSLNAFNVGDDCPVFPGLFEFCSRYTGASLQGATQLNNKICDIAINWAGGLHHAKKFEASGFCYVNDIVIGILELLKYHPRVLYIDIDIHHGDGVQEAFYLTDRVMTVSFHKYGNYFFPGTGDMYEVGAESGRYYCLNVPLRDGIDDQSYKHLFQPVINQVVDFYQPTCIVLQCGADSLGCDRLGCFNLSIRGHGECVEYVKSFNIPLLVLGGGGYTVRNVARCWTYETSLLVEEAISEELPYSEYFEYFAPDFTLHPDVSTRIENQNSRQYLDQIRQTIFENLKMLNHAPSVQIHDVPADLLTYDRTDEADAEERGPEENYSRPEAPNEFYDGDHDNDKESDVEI

Histone deacetylase 8 = Histone deacetylase 8 (Homo sapiens, UniProt Q9BY41); assay: Inhibition of human recombinant His-tagged HDAC8 expressed in Escherichia coli incubated for 2 hrs by fluorescence based analysis
Sequence of Histone deacetylase 8 (Q9BY41 whole entry): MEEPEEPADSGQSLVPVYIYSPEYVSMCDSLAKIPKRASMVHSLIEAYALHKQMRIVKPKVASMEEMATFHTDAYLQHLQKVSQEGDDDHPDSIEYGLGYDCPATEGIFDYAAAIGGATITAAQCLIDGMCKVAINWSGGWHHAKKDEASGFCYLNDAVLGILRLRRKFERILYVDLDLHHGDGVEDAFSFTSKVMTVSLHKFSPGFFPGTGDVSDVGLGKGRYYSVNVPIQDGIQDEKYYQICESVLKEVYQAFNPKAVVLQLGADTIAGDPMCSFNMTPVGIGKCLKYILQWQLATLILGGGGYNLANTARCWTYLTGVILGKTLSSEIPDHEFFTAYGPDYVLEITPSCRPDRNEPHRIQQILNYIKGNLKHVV

MDA-MB-231 = assay: Antiproliferative activity against human MDA-MB-231 cells assessed as cell growth inhibition; type: functional, cell-based
T47D [5] = assay: Antiproliferative activity against human T47D cells assessed as cell growth inhibition; type: functional, cell-based
BT-20 = assay: Antiproliferative activity against human BT-20 cells assessed as cell growth inhibition; type: functional, cell-based
MCF7 [6] = assay: cells; conditions: Homo sapiens; remark: listed apart in the source
Tubulin beta = assay: Inhibition of beta-tubulin polymerization in human MCF7 cells using TMB as substrate incubated for 2 hrs by spectrophotometry analysis; type: cell-based
Histone deacetylase 1 [7] = molecular target: T1, Histone deacetylase 1; assay: Inhibition of HDAC1 in human MCF7 cells using TMB as substrate incubated for 2 hrs by ELISA analysis; type: cell-based
Histone deacetylase 2 [8] = molecular target: T2, Histone deacetylase 2; assay: Inhibition of HDAC2 in human MCF7 cells using TMB as substrate incubated for 2 hrs by ELISA analysis; type: cell-based
MCF7 [9] = assay: cells; conditions: Homo sapiens, MCF7, 72 h
Description: Antiproliferative activity against human MCF7 cells assessed as cell growth inhibition measured after 72 hrs by MTT assay

HepG2 [10] = assay: cells; conditions: Homo sapiens, HepG2, 72 h
Description: Antiproliferative activity against human HepG2 cells assessed as cell growth inhibition measured after 72 hrs by MTT assay

Histone deacetylase 4 [11] = molecular target: T3, Histone deacetylase 4 (Homo sapiens, UniProt P56524); assay: Inhibition of HDAC4 in human HeLa cells incubated for 1 hr by mass spectrometry method; type: cell-based
T3 sequence (P56524 whole entry): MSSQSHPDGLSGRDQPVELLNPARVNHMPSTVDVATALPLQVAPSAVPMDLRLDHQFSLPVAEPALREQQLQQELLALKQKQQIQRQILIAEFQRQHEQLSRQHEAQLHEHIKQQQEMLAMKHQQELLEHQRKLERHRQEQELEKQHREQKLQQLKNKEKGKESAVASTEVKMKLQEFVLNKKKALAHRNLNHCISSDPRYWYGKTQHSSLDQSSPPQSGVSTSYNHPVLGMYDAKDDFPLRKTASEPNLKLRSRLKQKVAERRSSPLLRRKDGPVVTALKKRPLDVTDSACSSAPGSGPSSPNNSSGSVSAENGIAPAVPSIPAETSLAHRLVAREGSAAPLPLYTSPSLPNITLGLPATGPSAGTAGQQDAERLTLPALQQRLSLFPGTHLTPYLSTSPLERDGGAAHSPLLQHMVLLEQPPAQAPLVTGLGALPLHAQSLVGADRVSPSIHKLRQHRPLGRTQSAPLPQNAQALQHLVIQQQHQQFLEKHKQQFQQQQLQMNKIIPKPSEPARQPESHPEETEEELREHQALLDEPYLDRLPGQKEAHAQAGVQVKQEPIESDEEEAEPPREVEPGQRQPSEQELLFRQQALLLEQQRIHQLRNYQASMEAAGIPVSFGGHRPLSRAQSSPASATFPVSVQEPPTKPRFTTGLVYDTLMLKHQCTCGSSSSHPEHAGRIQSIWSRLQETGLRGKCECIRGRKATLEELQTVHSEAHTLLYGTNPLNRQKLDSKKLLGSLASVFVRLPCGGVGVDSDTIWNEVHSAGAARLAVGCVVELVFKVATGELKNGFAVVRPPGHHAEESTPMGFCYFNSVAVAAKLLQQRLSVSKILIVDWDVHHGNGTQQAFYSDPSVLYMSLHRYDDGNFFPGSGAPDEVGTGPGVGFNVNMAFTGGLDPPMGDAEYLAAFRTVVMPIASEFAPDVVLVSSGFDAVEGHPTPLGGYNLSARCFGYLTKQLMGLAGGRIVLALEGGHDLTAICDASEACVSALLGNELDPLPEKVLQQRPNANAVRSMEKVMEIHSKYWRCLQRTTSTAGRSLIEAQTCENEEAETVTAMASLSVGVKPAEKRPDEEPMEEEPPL

Histone deacetylase 1 [12] = molecular target: T1, Histone deacetylase 1; assay: Inhibition of HDAC1 (unknown origin)
[13] = Half life in mouse; type: ADME, organism-based; conditions: in vivo
Histone deacetylase 4 [14] = molecular target: T3, Histone deacetylase 4; assay: Inhibition of HDAC4 (unknown origin)
Histone deacetylase 5 = Histone deacetylase 5 (Homo sapiens, UniProt Q9UQL6); assay: Inhibition of HDAC5 (unknown origin)
[15] = molecular target: T4, Protein deacetylase HDAC6 (Homo sapiens, UniProt Q9UBN7); assay: Inhibition of HDAC6 (unknown origin)
T4 sequence (Q9UBN7 whole entry): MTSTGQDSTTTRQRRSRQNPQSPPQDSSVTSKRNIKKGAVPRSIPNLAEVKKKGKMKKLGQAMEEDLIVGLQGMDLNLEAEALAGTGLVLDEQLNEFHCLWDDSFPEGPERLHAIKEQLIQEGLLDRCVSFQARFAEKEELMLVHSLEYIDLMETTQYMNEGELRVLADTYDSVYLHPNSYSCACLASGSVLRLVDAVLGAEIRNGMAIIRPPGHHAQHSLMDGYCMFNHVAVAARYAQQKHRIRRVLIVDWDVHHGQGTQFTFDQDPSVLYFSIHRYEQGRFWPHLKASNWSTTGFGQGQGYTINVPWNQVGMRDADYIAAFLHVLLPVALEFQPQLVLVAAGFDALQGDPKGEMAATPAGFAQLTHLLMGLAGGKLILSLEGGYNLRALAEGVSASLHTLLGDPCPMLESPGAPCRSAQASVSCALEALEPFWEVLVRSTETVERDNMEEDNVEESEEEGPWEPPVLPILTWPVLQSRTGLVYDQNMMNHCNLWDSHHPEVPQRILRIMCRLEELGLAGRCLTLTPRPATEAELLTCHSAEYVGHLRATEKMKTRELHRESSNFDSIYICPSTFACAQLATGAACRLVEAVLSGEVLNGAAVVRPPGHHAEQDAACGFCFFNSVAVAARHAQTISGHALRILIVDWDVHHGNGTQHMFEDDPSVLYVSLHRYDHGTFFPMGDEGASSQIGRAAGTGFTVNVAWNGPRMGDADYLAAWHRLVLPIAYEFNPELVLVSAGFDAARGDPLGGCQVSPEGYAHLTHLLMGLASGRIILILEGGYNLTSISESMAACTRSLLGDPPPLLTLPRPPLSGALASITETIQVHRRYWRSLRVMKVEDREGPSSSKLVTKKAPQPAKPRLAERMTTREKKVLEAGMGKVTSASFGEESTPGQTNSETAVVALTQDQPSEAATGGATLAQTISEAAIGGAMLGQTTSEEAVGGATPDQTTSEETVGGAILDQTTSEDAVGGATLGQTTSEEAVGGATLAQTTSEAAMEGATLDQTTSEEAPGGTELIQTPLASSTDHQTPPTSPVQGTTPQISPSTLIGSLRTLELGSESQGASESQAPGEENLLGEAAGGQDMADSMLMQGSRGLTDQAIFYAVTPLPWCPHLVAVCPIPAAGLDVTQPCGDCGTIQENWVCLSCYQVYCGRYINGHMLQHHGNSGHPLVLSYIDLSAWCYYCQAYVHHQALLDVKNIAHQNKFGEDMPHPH

MCF10 = assay: Antiproliferative activity against human MCF10 cells assessed as cell growth inhibition; type: functional, cell-based
AGS = assay: Antiproliferative activity against human AGS cells assessed as cell growth inhibition; type: functional, cell-based
HepG2 [16] = assay: Antiproliferative activity against human HepG2 cells assessed as cell growth inhibition; type: functional, cell-based
Hep 3B2 = assay: Antiproliferative activity against human Hep3B cells assessed as cell growth inhibition; type: functional, cell-based
Huh-7 = assay: Antiproliferative activity against human Huh-7 cells assessed as cell growth inhibition; type: functional, cell-based
HA22T cell line = assay: Antiproliferative activity against human HA22T cell line assessed as cell growth inhibition; type: functional, cell-based
[17] = Cytotoxicity against human CCD-18Co assessed as cell growth inhibition; type: toxicity, cell-based; conditions: CCD-18Co cells
Histone deacetylase 1 [18] = molecular target: T1, Histone deacetylase 1; assay: Inhibition of recombinant HDAC1 (unknown origin) using AMC-K(Ac)GL as substrate by fluorescence based analysis
[19] = molecular target: T4, Protein deacetylase HDAC6; assay: Inhibition of recombinant HDAC6 (unknown origin) using AMC-K(Ac)GL as substrate by fluorescence based analysis
HT-29 = assay: Inhibition of colony formation in human HT-29 cells at 0.5 to 5 uM measured after 10 days by methylene blue staining based analysis relative to control; type: functional; conditions: dose 0.5-5 µM, time 10 day
[20] = Inhibition of HDAC in Sprague-Dawley rat hepatocytes using Fluor de Lys as substrate incubated for 15 mins by fluorometric assay; type: cell-based; conditions: Hepatocyte, 0.25 h
P388 = assay: Cytotoxicity against mouse P388 cells assessed as cell growth inhibition; type: functional, cell-based

## CC(/C=C/C(=O)NO)=C\[C@@H](C)C(=O)c1ccc(N(C)C)cc1 [TRICHOSTATIN]
T47D [1]
  IC50: 0.0264 µM
BT-474
  IC50: 0.0333 µM
MCF7 [2]
  IC50: 0.0277 µM

## CCCC(=O)[O-].[Na+] [SODIUM BUTYRATE]
Histone deacetylase 1 [3]
  IC50: 16 µM
Histone deacetylase 2 [4]
  IC50: 12 µM
Histone deacetylase 3
  IC50: 9 µM
Histone deacetylase 8
  IC50: 15 µM
MDA-MB-231
  IC50: 600 µM
T47D [5]
  IC50: 700 µM
BT-20
  IC50: 1400 µM
MCF7 [6]
  IC50: 500 µM

## Cc1cc(/C=C/C(=O)c2ccc(NC(=O)c3ccc(CN4C(=O)c5ccccc5C4=O)cc3)cc2)cc(C)c1C
Tubulin beta
  IC50: 2.32 µM
Histone deacetylase 1 [7]
  IC50: 0.22 µM
Histone deacetylase 2 [8]
  IC50: 0.43 µM
MCF7 [9]
  IC50: 1.88 µM
HepG2 [10]
  IC50: 1.62 µM

## O=C(/C=C/c1ccc([N+](=O)[O-])cc1)c1ccc(NC(=O)c2ccc(CN3C(=O)c4ccccc4C3=O)cc2)cc1
MCF7 [9]
  IC50: 9.78 µM
HepG2 [10]
  IC50: 15.8 µM

## COc1ccc(/C=C/C(=O)c2ccc(NC(=O)c3ccc(CN4C(=O)c5ccccc5C4=O)cc3)cc2)cc1
MCF7 [9]
  IC50: 2.41 µM
HepG2 [10]
  IC50: 1.87 µM

## Cc1c[nH]c([C@@H]2NC(=O)[C@H](CCCCCC(=O)[C@H](C)O)NC(=O)[C@H]3CCCN3C(=O)[C@H](Cc3ccccc3)NC2=O)n1
Histone deacetylase 4 [11]
  IC50: 350 µM

## C[C@@H](O)C(=O)CCCCC[C@@H]1NC(=O)[C@H]2CCCN2C(=O)[C@H](Cc2ccccc2)NC(=O)[C@H](Cc2ccccc2)NC1=O
Histone deacetylase 4 [11]
  IC50: 0.28 µM

## COc1ccc(/C=C/C(=O)c2ccc(NC(=O)c3ccc(CN4C(=O)c5ccccc5C4=O)cc3)cc2)c(OC)c1
MCF7 [9]
  IC50: 2.09 µM
HepG2 [10]
  IC50: 1.75 µM

## O=C(/C=C/c1ccc(Cl)cc1)c1ccc(NC(=O)c2ccc(CN3C(=O)c4ccccc4C3=O)cc2)cc1
MCF7 [9]
  IC50: 4.11 µM
HepG2 [10]
  IC50: 3.21 µM

## C[C@@H](O)C(=O)CCCCC[C@@H]1NC(=O)[C@H]2CCCN2C(=O)[C@H](Cc2ccccc2)NC(=O)[C@H](n2ccc3ccccc32)NC1=O
Histone deacetylase 4 [11]
  IC50: 0.02 µM

## CC[C@]1(C)NC(=O)[C@H](CCCCCC(=O)[C@@H](C)O)NC(=O)[C@H]2CC(C)(C)CN2C(=O)[C@H](Cc2ccccc2)NC1=O
Histone deacetylase 4 [11]
  IC50: 0.09 µM

## C[C@H](O)C(=O)CCCCC[C@@H]1NC(=O)[C@H]2CCCN2C(=O)[C@H](Cc2ccccc2)NC(=O)C(C)(C)NC1=O
Histone deacetylase 4 [11]
  IC50: 0.33 µM

## C[C@@H](O)C(=O)CCCCC[C@@H]1NC(=O)[C@H]2CCCN2C(=O)[C@H](Cc2ccccc2)NC(=O)C(C)(C)NC1=O
Histone deacetylase 4 [11]
  IC50: 0.03 µM

## COc1ccc(/C=C\c2cc(OC)c(OC)c(OC)c2)cc1O [COMBRETASTATIN A4]
MCF7 [9]
  IC50: 4.85 µM

## C[C@H](O)C(=O)CCCCC[C@@H]1NC(=O)[C@H]2CCCN2C(=O)[C@H](Cc2ccccc2)NC(=O)C(C2CCCCC2)(C2CCCCC2)NC1=O
Histone deacetylase 4 [11]
  IC50: 0.67 µM

## O=C(/C=C/c1cc2ccc1CCc1ccc(cc1)CC2)c1ccc(NC(=O)c2ccc(CN3C(=O)c4ccccc4C3=O)cc2)cc1
MCF7 [9]
  IC50: 5.28 µM
HepG2 [10]
  IC50: 8.47 µM

## O=C(/C=C/C1Oc2ccccc2O1)c1ccc(NC(=O)c2ccc(CN3C(=O)c4ccccc4C3=O)cc2)cc1
MCF7 [9]
  IC50: 3.45 µM
HepG2 [10]
  IC50: 1.96 µM

## O=C(/C=C/c1ccccc1)c1ccc(NC(=O)c2ccc(CN3C(=O)c4ccccc4C3=O)cc2)cc1
MCF7 [9]
  IC50: 14.4 µM
HepG2 [10]
  IC50: 12.9 µM

## CCCC(CCC)C(=O)O [VALPROIC ACID]
Histone deacetylase 1 [12]
  IC50: 400 µM
[13]
  t1/2: 7 h
Histone deacetylase 4 [14]
  IC50: 1000 µM
Histone deacetylase 5
  IC50: 1000 µM
[15]
  IC50: 1000 µM
MCF7 [6]
  IC50: 230 µM

## CC[C@@H]1NC(=O)[C@H](CCCCCC(=O)[C@H](C)O)NC(=O)[C@H]2CCCN2C(=O)[C@H](Cc2ccccc2)NC1=O
Histone deacetylase 4 [11]
  IC50: 1 µM

## CCC(=O)CCCCC[C@@H]1NC(=O)[C@H]2CCCCN2C(=O)[C@H]([C@@H](C)CC)NC(=O)[C@H](Cc2cc3ccccc3n2OC)NC1=O
MCF10
  IC50: 0.19 µM
AGS
  IC50: 0.19 µM
HepG2 [16]
  IC50: 0.19 µM
Hep 3B2
  IC50: 0.19 µM
Huh-7
  IC50: 0.19 µM
HA22T cell line
  IC50: 0.19 µM
[17]
  IC50: 0.19 µM
MCF7 [6]
  IC50: 0.19 µM

## CC(C)(C)OC(=O)Nc1cccc(C(=O)/C=C/c2ccc(/C=C/C(=O)NO)cc2)c1
Histone deacetylase 1 [18]
  IC50: 2.9 µM
[19]
  IC50: 0.01 µM
HT-29
  inhibition (INH): <=60%

## O=C(CCCCCNC(=O)c1cc2ccccc2[nH]1)NO
[20]
  IC50: 0.014 µM

## O=C(/C=C/c1cccc2ccccc12)c1ccc(NC(=O)c2ccc(CN3C(=O)c4ccccc4C3=O)cc2)cc1
MCF7 [9]
  IC50: 11.3 µM
HepG2 [10]
  IC50: 8.07 µM

## CN(C)c1ccc(C(=O)NCCCCCC(=O)NO)cc1
[20]
  IC50: 0.024 µM

## CC[C@]1(C)NC(=O)[C@H](CCCCCC(=O)[C@@H](C)O)NC(=O)[C@H]2CCCN2C(=O)[C@H](Cc2ccccc2)NC1=O
Histone deacetylase 4 [11]
  IC50: 0.05 µM

## O=C(/C=C/c1ccccc1-c1ccco1)c1ccc(NC(=O)c2ccc(CN3C(=O)c4ccccc4C3=O)cc2)cc1
MCF7 [9]
  IC50: 5.44 µM
HepG2 [10]
  IC50: 9.05 µM

## O=C(NCCSSCCNC(=O)/C(Cc1ccc(O)c(Br)c1)=N/O)/C(Cc1ccc(O)c(Br)c1)=N/O [PSAMMAPLIN A]
P388
  IC50: 0.3 µg/mL (≈ 0.452 µM)
